The record followed here is ChEMBL document CHEMBL1201862, “PubChem BioAssay data set” (2004).

Test systems include EKVX; HOP-92; ACHN; SK-OV-3; CAKI-1; MDA-MB-435; UO-31; COLO 205; SK-MEL-5; SN12C; NCI-H226; MDA-N; OVCAR-5; NCI-H460; HL-60; HCT-15; OVCAR-8; MOLT-4; UACC-257; RXF 393.
Holding throughout (assay): inhibition of tumour cell growth, NCI panel, 48 h

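Cultured in 96-well plates, cells were exposed to test compound for 48 hours across five concentrations. GI50 = concentration required for 50% inhibition of growth.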 The source made the active and inactive calls. No stated cut-off is given here; in the data, active = GI50 up to about 1.1 µM and inactive = higher.

For `C=CCCCCCCCCCOC1C=CC(O)C(CO)O1` (stereo not given), the GI50 was 39.2 µM (inactive) in the experiment with EKVX; 33.5 µM (inactive) in the experiment with HOP-92; 46.5 µM (inactive) in the experiment with ACHN; 83.6 µM (inactive) in the experiment with SK-OV-3; 56 µM (inactive) in the experiment with CAKI-1; 35.5 µM (inactive) in the experiment on MDA-MB-435. Also, the GI50 was 35.8 µM (inactive) in the experiment with UO-31; 37.1 µM (inactive) in the experiment on COLO 205; 20.3 µM (inactive) in the experiment on SK-MEL-5; 49.5 µM (inactive) with SN12C; > 100 µM (inactive) in the experiment on NCI-H226; 33.3 µM (inactive) in the experiment on MDA-N. The GI50 in the experiment with OVCAR-5 is 68.4 µM (inactive); in the experiment on NCI-H460, 25.2 µM (inactive); in the experiment with HL-60, 21.9 µM (inactive); in the experiment on HCT-15, 35.1 µM; in the experiment with OVCAR-8, 17.5 µM (inactive); in the experiment with MOLT-4, 25.5 µM (inactive). The GI50 with UACC-257 was 23.7 µM (inactive); with RXF 393, 95.9 µM (inactive).
As for `Cc1ccc(S(=O)(=O)N/N=C/C(=C/c2ccc(Cl)cc2)CC(/C=N/NS(=O)(=O)c2ccc(C)cc2)=C\c2ccc(Cl)cc2)cc1`, the GI50 in the experiment on EKVX is 13 µM (inactive); in the experiment on HOP-92, 2.23 µM (inactive); with ACHN it was 6.04 µM (inactive); with SK-OV-3, 44.4 µM (inactive); in the experiment with CAKI-1 it was 5.37 µM (inactive); in the experiment on MDA-MB-435, 3.72 µM (inactive). Further, the GI50 with UO-31 is 5.62 µM (inactive); with COLO 205, 5 µM (inactive); in the experiment on SK-MEL-5, 4.03 µM (inactive); in the experiment with SN12C, 7.08 µM (inactive); in the experiment with NCI-H226, 15 µM (inactive); in the experiment on MDA-N, 4.45 µM (inactive). In addition, the GI50 in the experiment on OVCAR-5 was 15.3 µM (inactive); with NCI-H460, 5.52 µM (inactive); in the experiment on HL-60 it was 3.59 µM (inactive); in the experiment on HCT-15, 3.58 µM; in the experiment on OVCAR-8, 2.63 µM (inactive); with MOLT-4, 2.55 µM (inactive). In addition, the GI50 with UACC-257 is 11.4 µM (inactive); in the experiment with RXF 393, 3.56 µM (inactive).
With `Cc1nnc(N)nc1C/C=C/C(Sc1ccc(Cl)cc1)c1ccccc1` (stereo not given), the GI50 in the experiment on EKVX is 3.64 µM (inactive); with HOP-92 it was 5.68 µM (inactive); in the experiment on ACHN, 4.3 µM (inactive); with SK-OV-3, 3.86 µM (inactive); in the experiment with CAKI-1 it was 5.7 µM (inactive); in the experiment with MDA-MB-435, 3.15 µM (inactive). For the same molecule, the GI50 in the experiment on UO-31 was 1.52 µM (inactive); in the experiment on COLO 205, 4.5 µM (inactive); in the experiment on SK-MEL-5, 4.35 µM (inactive); in the experiment with SN12C, 4.41 µM (inactive); in the experiment on NCI-H226, 1.86 µM (inactive); in the experiment with MDA-N, 6.21 µM (inactive). The GI50 was 4.89 µM (inactive) with OVCAR-5; 3.41 µM (inactive) in the experiment on NCI-H460; 2.87 µM (inactive) in the experiment on HL-60; 3.25 µM in the experiment with HCT-15; 5.04 µM (inactive) with OVCAR-8; 2.56 µM (inactive) in the experiment on MOLT-4. Moreover, the GI50 in the experiment with UACC-257 was 4.22 µM (inactive); in the experiment with RXF 393 it was 4.45 µM (inactive).
On to `CC(=O)N1NC(c2ccccc2)=CC(=O)/C1=C/C(=O)c1ccccc1`, for which the GI50 in the experiment with EKVX is 49.2 µM (inactive); with HOP-92, 34.5 µM (inactive); in the experiment on ACHN, 77.3 µM (inactive); in the experiment with SK-OV-3, > 100 µM (inactive); in the experiment on CAKI-1, 29.7 µM (inactive); in the experiment with MDA-MB-435, 20.2 µM (inactive). The GI50 in the experiment with UO-31 is 98.4 µM (inactive); with COLO 205 it was > 100 µM (inactive); in the experiment on SK-MEL-5, 47.8 µM (inactive); with SN12C, 82.8 µM (inactive); with NCI-H226 it was 93.8 µM (inactive); with MDA-N, 30.6 µM (inactive). The GI50 was > 100 µM (inactive) in the experiment with OVCAR-5; 71.1 µM (inactive) in the experiment with NCI-H460; 35.2 µM (inactive) with HL-60; 70.8 µM in the experiment with HCT-15; > 100 µM (inactive) with OVCAR-8; 52.5 µM (inactive) in the experiment with MOLT-4. Also, the GI50 in the experiment with UACC-257 is > 100 µM (inactive); in the experiment with RXF 393, 24.2 µM (inactive).
`CC(=O)O[C@H]1[C@@H](N2CCN(C)CC2)C[C@H]2[C@@H]3CC=C4C[C@@H](N5CCCC5)CC[C@]4(C)[C@H]3CC[C@@]21C`: the GI50 in the experiment on EKVX is 74.5 µM (inactive); in the experiment on HOP-92 it was > 100 µM (inactive); in the experiment on ACHN, > 100 µM (inactive); with SK-OV-3 it was > 100 µM (inactive); with CAKI-1, 49.4 µM (inactive); in the experiment on MDA-MB-435, 24.6 µM (inactive). Besides, the GI50 in the experiment with UO-31 was 34.9 µM (inactive); in the experiment on COLO 205, 3.85 µM (inactive); with SK-MEL-5, 25.9 µM (inactive); with SN12C it was > 100 µM (inactive); in the experiment with NCI-H226, > 100 µM (inactive); in the experiment with MDA-N it was 26.1 µM (inactive). Besides, the GI50 was 34.5 µM (inactive) in the experiment with OVCAR-5; 60.5 µM (inactive) with NCI-H460; 11.2 µM (inactive) in the experiment with HL-60; 26.1 µM in the experiment with HCT-15; 85.1 µM (inactive) with OVCAR-8; 15.6 µM (inactive) in the experiment with MOLT-4. Besides, the GI50 in the experiment on UACC-257 is 21.1 µM (inactive); in the experiment with RXF 393, 22.2 µM (inactive).
Consider `COc1ccccc1/N=N/C(=N/NC(=O)c1ccc(C)cc1)c1ccc(N(CCC#N)CCC#N)cc1OC`, for which the GI50 was 26.4 µM (inactive) with EKVX; 27.4 µM (inactive) with HOP-92; 19.6 µM (inactive) with ACHN; 37.1 µM (inactive) with SK-OV-3; 52.7 µM (inactive) in the experiment with CAKI-1; 29.1 µM (inactive) in the experiment on MDA-MB-435. In addition, the GI50 in the experiment with UO-31 was 38.5 µM (inactive); in the experiment with COLO 205, 16 µM (inactive); in the experiment on SK-MEL-5, 37.8 µM (inactive); in the experiment on SN12C, 28.3 µM (inactive); in the experiment with NCI-H226, 80 µM (inactive); in the experiment with MDA-N it was 23.2 µM (inactive). Further, the GI50 with OVCAR-5 is > 100 µM (inactive); with NCI-H460, 29.5 µM (inactive); in the experiment on HL-60, 10.8 µM (inactive); with HCT-15, 42.3 µM; in the experiment on OVCAR-8, 32.5 µM (inactive); in the experiment with MOLT-4, 19.1 µM (inactive). The figures for the GI50 in the experiment with UACC-257 and in the experiment on RXF 393 were 38.3 µM (inactive) and 22.9 µM (inactive), respectively.
Regarding `N#Cc1c(NC(=O)C(F)(F)F)sc2c3c(=O)c4ccccc4c(=O)c=3oc3ccccc3c12`, the GI50 in the experiment on EKVX is 24.6 µM (inactive); with HOP-92, 19.7 µM (inactive); in the experiment on ACHN, 21.1 µM (inactive); with SK-OV-3 it was 29.4 µM (inactive); with CAKI-1, 15.4 µM (inactive); in the experiment with MDA-MB-435, 17.1 µM (inactive). The GI50 in the experiment on UO-31 is 19 µM (inactive); with COLO 205, 14.7 µM (inactive); in the experiment on SK-MEL-5, 11.3 µM (inactive); in the experiment with SN12C, 21.9 µM (inactive); with NCI-H226, 8.02 µM (inactive); in the experiment on MDA-N, 18.3 µM (inactive). Besides, the GI50 was 30.7 µM (inactive) in the experiment with OVCAR-5; 17.6 µM (inactive) in the experiment on NCI-H460; 4.46 µM (inactive) with HL-60; 13.1 µM in the experiment with HCT-15; 15.7 µM (inactive) in the experiment with OVCAR-8; 11.7 µM (inactive) with MOLT-4. Moreover, the GI50 in the experiment on UACC-257 is 16.7 µM (inactive); with RXF 393, 10 µM (inactive).
For `CO/C=C(/C(=O)OC)c1ccccc1Oc1c(F)c(F)c(F)c(F)c1F`, the GI50 is 32.7 µM (inactive) in the experiment with EKVX; 19.6 µM (inactive) with HOP-92; 50.4 µM (inactive) with ACHN; 47.9 µM (inactive) with SK-OV-3; 12.8 µM (inactive) with CAKI-1; 29.7 µM (inactive) in the experiment on MDA-MB-435. Besides, the GI50 with UO-31 is 32.2 µM (inactive); in the experiment on COLO 205, 17.6 µM (inactive); in the experiment on SK-MEL-5, 20.9 µM (inactive); in the experiment on SN12C, 42.9 µM (inactive); in the experiment with NCI-H226, 38.2 µM (inactive); in the experiment with MDA-N, 41.6 µM (inactive). Further, the GI50 in the experiment with OVCAR-5 was > 100 µM (inactive); in the experiment with NCI-H460, 31.6 µM (inactive); in the experiment with HL-60, < 0.01 µM (active); in the experiment with HCT-15 it was 54.2 µM; with OVCAR-8, 80.5 µM (inactive); in the experiment with MOLT-4, 7.69 µM (inactive). Also, the GI50 in the experiment on UACC-257 is 24.9 µM (inactive); with RXF 393, 20.7 µM (inactive).
In the case of `CC(=O)OC(OC(C)=O)c1ccc2ccc3cccc4ccc1c2c34`, the GI50 in the experiment on EKVX was 27.4 µM (inactive); in the experiment on HOP-92, 17.9 µM (inactive); in the experiment on ACHN, 26.2 µM (inactive); with SK-OV-3, 23 µM (inactive); in the experiment with CAKI-1 it was 9.04 µM (inactive); with MDA-MB-435, 18.9 µM (inactive). In addition, the GI50 in the experiment on UO-31 was 22.3 µM (inactive); in the experiment on COLO 205, 25.1 µM (inactive); with SK-MEL-5, 18.2 µM (inactive); in the experiment on SN12C, 26.7 µM (inactive); in the experiment with NCI-H226, 3.08 µM (inactive); in the experiment on MDA-N, 15.2 µM (inactive). Moreover, the GI50 in the experiment on OVCAR-5 is 20 µM (inactive); with NCI-H460, 21.4 µM (inactive); in the experiment on HL-60, 9.38 µM (inactive); in the experiment with HCT-15, 33.7 µM; in the experiment with OVCAR-8, 12.8 µM (inactive); with MOLT-4 it was 39.4 µM (inactive). Besides, the GI50 with UACC-257 was 17.1 µM (inactive); in the experiment with RXF 393, 11.3 µM (inactive).
As for `O=C(N/N=C\c1ccc2ccccc2c1)Nc1ccc([N+](=O)[O-])cc1`, the GI50 with EKVX is 47.3 µM (inactive); in the experiment with HOP-92 it was 17.5 µM (inactive); with ACHN, 24.6 µM (inactive); in the experiment with SK-OV-3, 18.9 µM (inactive); in the experiment on CAKI-1, 45 µM (inactive); in the experiment with MDA-MB-435, 31.1 µM (inactive). In addition, the GI50 with UO-31 was 23.2 µM (inactive); in the experiment with COLO 205, 21.6 µM (inactive); in the experiment with SK-MEL-5 it was 22.7 µM (inactive); in the experiment with SN12C, 24.2 µM (inactive); in the experiment on NCI-H226, 29.4 µM (inactive); in the experiment on MDA-N, 23.5 µM (inactive). The GI50 in the experiment with OVCAR-5 was 22.5 µM (inactive); in the experiment on NCI-H460, 24.4 µM (inactive); with HL-60, > 57.9 µM (inactive); in the experiment with HCT-15, 16.8 µM; in the experiment with OVCAR-8, 23 µM (inactive); with MOLT-4, 20 µM (inactive). The GI50 was 29 µM (inactive) in the experiment with UACC-257 and 26.4 µM (inactive) in the experiment on RXF 393.
